Like-named read-outs stand apart in the source and are kept apart here.
Legend:
[1] = molecular target: T1, sEH enzyme (human recombinant) (Homo sapiens, UniProt P34913); test: in vitro sEH enzyme activity by fluorescence analysis, single concentration inhibition; assay type: biochemical; settings: read-out: sEH % inhibition, @ 0.1 μM
T1 construct: purchased Cayman Chemical
T1 sequence (P34913 1-555): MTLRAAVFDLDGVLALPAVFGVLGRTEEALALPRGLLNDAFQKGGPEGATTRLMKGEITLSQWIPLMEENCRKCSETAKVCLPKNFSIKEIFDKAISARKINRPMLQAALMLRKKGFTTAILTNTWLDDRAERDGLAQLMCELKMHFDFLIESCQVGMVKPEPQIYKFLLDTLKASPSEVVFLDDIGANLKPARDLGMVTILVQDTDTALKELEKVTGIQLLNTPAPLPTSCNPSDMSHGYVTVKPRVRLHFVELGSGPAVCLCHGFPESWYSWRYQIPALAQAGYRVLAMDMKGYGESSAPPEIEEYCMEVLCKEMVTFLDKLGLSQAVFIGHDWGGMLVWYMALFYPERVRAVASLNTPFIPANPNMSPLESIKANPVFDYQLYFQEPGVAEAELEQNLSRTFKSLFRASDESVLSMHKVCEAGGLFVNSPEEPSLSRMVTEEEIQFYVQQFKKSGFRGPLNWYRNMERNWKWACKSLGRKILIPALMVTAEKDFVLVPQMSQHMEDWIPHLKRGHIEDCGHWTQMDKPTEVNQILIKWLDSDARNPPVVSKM
Procedure: The benzothiazole skeleton compounds (concentration: 0.1 μM) according to the above formula I of the present invention were tested for the in vitro sEH enzyme activity by fluorescence analysis.
12 μL of sEH enzyme (human recombinant, 0.5 mg/mL, Cayman Chemical) was diluted with 588 μL of buffer (25 mM bis-Tris, pH 7.0). The fluorescent substrate was PHOME (cyano-(6-methoxy-naphthalen-2-yl)-methyl (3-phenyl-oxiranyl)-acetate) in DMSO (10 μM, Cayman Chemical). The compound to be tested was dissolved in 100% DMSO at a concentration of 4 μM. 185 μL of buffer (25 mM bis-Tris, pH 7.0), 5 μL of compound solution, and 5 μL of diluted sEH enzyme were added to the wells of a 96-well plate, and finally 5 μL of substrate solution was added to initiate the reaction. After incubating at 37° C. for 15 min, the fluorescence signal was measured with a microplate reader (excitation wavelength 330 nm, emission wavelength 465 nm).
Inhibition (%)=(F0−F1)/(F0)×100.

[2] = molecular target: T1, sEH enzyme (human recombinant); test: in vitro IC50 of soluble epoxide hydrolase (sEH) by fluorescence analysis; assay type: biochemical
Procedure: The benzothiazole skeleton compounds according to the above formula I of the present invention were tested for the in vitro sEH enzyme activity by fluorescence analysis. […] 12 μL of sEH enzyme (human recombinant, 0.5 mg/mL, Cayman Chemical) was diluted with 588 μL of buffer (25 mM bis-Tris, pH 7.0). […] The inhibitions at different concentrations for the compound were respectively measured in accordance with the inhibition assay, to calculate IC50.

[3] = tested on: carrageenan inflammatory pain model SD rats; test: Measurement of analgesic effect, carrageenan inflammatory pain model, hot plate; assay type: in vivo; settings: intragastric suspension 15 mg/mL, 1 hour before modeling, FIG. 6
Procedure: Male SD rats (6 to 8 weeks old) (SPF (Beijing) Biotechnology Co., Ltd.) were subcutaneously injected with 50 μL of 1% λ-carrageenan saline solution at planta to prepare an inflammatory pain model (Rose T E, Morisseau C, Liu J Y, et al. 1-Aryl-3-(1-acylpiperidin-4-yl)urea inhibitors of human and murine soluble epoxide hydrolase: structure-activity relationships, pharmacokinetics, and reduction of inflammatory pain. J Med Chem, 2010, 53(19): 7067-7075). The compounds of Examples 12 and 40 were added to 0.5% sodium carboxymethylcellulose solution and ground to prepare a suspension with a concentration of 15 mg/mL. 1 hour before modeling, the rats were intragastrically administrated. The changes in the paw withdrawal time of rats were measured with a hot plate dolorimeter.

[4] = tested on: traumatic brain injury model SD rats; test: Measurement of brain injury protection, traumatic brain injury model (modified Feeney method); assay type: in vivo
Procedure: 45 male SD rats (6 to 8 weeks old) (SPF (Beijing) Biotechnology Co., Ltd.) were divided into the sham group, blank solvent group, and dosing group. 72 hours after intraperitoneally injecting the compound of Example 12 or blank solvent, a traumatic brain injury model was established using the modified Feeney method (Marmarou A, Foda M A, van den Brink W, et al., A new model of diffuse brain injury in rats. Part I: Pathophysiology and biomechanics. Journal of Neurosurgry, 1994, 80(2):291 to 300.). 23 hours after model establishment, three […] in each group were injected with Evans blue solution through the tail vein, and after 1 hour of circulation, the mice were decapitated and the brain was taken out to determine the content of Evans blue (EB), so as to study the permeability. Another three rats were taken to measure the water content in brain.

[5] = tested on: carrageenan-induced paw swelling in KM mice; test: Measurement of anti-inflammatory effect, carrageenan-induced paw swelling; assay type: in vivo; settings: intraperitoneal injection 1 hour before carrageenan, FIG. 3
Procedure: 1 hour in advance, the mice were intraperitoneally injected with the solutions of the compounds of Examples 12, 18, 27, and 40 (10% PEG 400, 10% Tween 80) or the blank solvent, respectively. Taking the initial paw thickness of the mice before modeling as 100%, the changes in the paw thickness of the mice were measured.

[6] = tested on: lipopolysaccharide-injected KM mice, forced swimming test; test: Measurement of antidepressant effect, lipopolysaccharide / forced swimming test; assay type: in vivo; settings: subcutaneous injection 23 hours after lipopolysaccharide, test 1 hour later, FIG. 7
Procedure: Male KM mice (6 to 8 weeks old) (SPF (Beijing) Biotechnology Co., Ltd.) swam in advance for 10 min, and were injected with lipopolysaccharide (0.5 mg/kg). After 23 hours, the mice were subcutaneously injected with the solutions of the compounds of Examples 12 and 40 or the blank solvent. After 1 hour, the mice were subjected to the forced swimming test for 6 min, and the immobility time (s) in later 4 minute for the mice in each group was recorded.

[7] = tested on: streptozotocin STZ diabetic model Balb/c mice; test: Measurement of hypoglycemic effect, streptozotocin diabetic model; assay type: in vivo; settings: intraperitoneal once a day, after two weeks, FIG. 4
Procedure: Male Balb/c mice (6 to 8 weeks old) (SPF (Beijing) Biotechnology Co., Ltd.) were intraperitoneally injected with streptozotocin STZ (40 mg/kg) once a day for 5 consecutive days, to prepare a diabetic model (Like A A, Rossini A A. Streptozotocin-induced pancreatic insulitis: new model of diabetes mellitus. Science, 1976, 193(4251):415-7). The mice after modeling were intraperitoneally injected with the solution of compound of Example 12 once a day.

[8] = tested on: unilateral ureteral obstruction (UUO) C57BL/6J mice; test: Measurement of anti-fibrosis effect, unilateral ureteral obstruction (UUO) model; assay type: in vivo; settings: intraperitoneal 30 mg·kg−1·d−1, 7 days after modeling
Procedure: Male C57BL/6J mice (6 to 8 weeks old) (SPF (Beijing) Biotechnology Co., Ltd.) were divided into 3 groups: sham group, unilateral ureteral obstruction (UUO) group, and UUO+Ex. 16 compound group. After the mice were anesthetized, the left ureter was ligated and cut to create a model. In the sham group, the ureter was only isolated without ligation. The experimental animals were administrated 72 hours before modeling, and the aqueous solution of Ex. 16 compound (10% PEG400, 10% Tween 80, concentration: 9 mg/mL) was intraperitoneally injected at a dose of 30 mg·kg^−1·d^−1; and the sham group and UUO group were intraperitoneally injected with an equal volume of blank solvent. 7 days after modeling, the animals were sacrificed, and samples were taken for testing.

[9] = compound 0.1 μM, human recombinant sEH, PHOME substrate, 37° C. 15 min
[10] = human recombinant sEH, PHOME substrate, read-out: IC50

Compound | inhibition at 0.1 µM [1, 9] | IC50 [2] | IC50 [2, 10] | other results
Nc1nc2ccc(NC(=O)Nc3ccc(Cl)cc3)cc2s1 [Example 1, 1-(2-aminobenzo[d]thiazol-6-yl)-3-(4-chlorophenyl)urea] | 76.1% | 4.8 nM | – | –
Nc1nc2ccc(NC(=O)NC34C[C@H]5C[C@@H](C3)C[C@@H](C4)C5)cc2s1 [Example 4, 1-(2-aminobenzo[d]thiazol-6-yl)-3-[(3s,5s,7s)-adamantan-1-yl]urea] | 77.3% | 122 nM | – | –
O=C(Nc1ccc(Cl)cc1)Nc1ccc2nc(NC(=O)Nc3ccc(Cl)cc3)sc2c1 [Example 7, 1,1′-(benzo[d]thiazol-2,6-diyl)bis[3-(4-chlorophenyl)urea]] | 59.9% | – | 9.2 nM | –
Nc1nc2ccc(N(CCN3CCOCC3)C(=O)Nc3ccc(Cl)cc3)cc2s1 [Example 12, 1-(2-aminobenzo[d]thiazol-6-yl)-1-[2-(4-morpholinyl)ethyl]-3-(4-chlorophenyl)urea] | – | – | 4.1 nM | paw withdrawal time in hot plate dolorimeter [3]: significantly prolong the paw withdrawal time; Water content in brain (%) ([4]; 30 mg/kg intraperitoneal, 72 hours before traumatic brain injury, * p < 0.05 vs blank solvent group): 79.46 ± 0.68 * %; EB content (μg/g) ([4]; 30 mg/kg intraperitoneal, Evans blue in brain, 24 hours after model, * p < 0.05 vs blank solvent group): 25.23 ± 1.63 * μg/g; water content in brain (in words) ([4]; traumatic brain injury rats, text summary of Table 4): reduce the water content; inhibition at 0.1 µM [1]: 68.7%; carrageenan-induced paw swelling (paw thickness) [5]: significantly inhibit; effect on paw swelling compared with celecoxib [5]: better than that of celecoxib; immobility time in forced swimming [6]: significantly reduce the immobility time; blood glucose [7]: significantly lower than that of the model group; glucose tolerance [7]: higher than that of the model group
Nc1nc2ccc(N(CCN3CCOCC3)C(=O)Nc3ccc(C(F)(F)F)cc3)cc2s1 [Example 13, 1-(2-aminobenzo[d]thiazol-6-yl)-1-[2-(4-morpholinyl)ethyl]-3-(4-trifluoromethylphenyl)urea] | 63.9% | – | 2.8 nM | –
Nc1nc2ccc(N(CCN3CCOCC3)C(=O)Nc3ccc(F)c(Br)c3)cc2s1 [Example 16, 1-(2-aminobenzo[d]thiazol-6-yl)-1-[2-(4-morpholinyl)ethyl]-3-(3-bromo-4-fluorophenyl)urea] | 79.7% | – | 0.25 nM | level of EETs in mouse kidney tissue ([8]; FIG. 1): maintain the level of EETs; collagen deposition ([8]; FIG. 2): reduce the collagen deposition; fibrotic areas ([8]; FIG. 2): decrease the fibrotic areas
CCc1ccc(NC(=O)N(CCN2CCOCC2)c2ccc3nc(N)sc3c2)cc1 [Example 18, 1-(2-aminobenzo[d]thiazol-6-yl)-1-[2-(4-morpholinyl)ethyl]-3-(4-ethylphenyl)urea] | 84.7% | 6.7 nM | – | carrageenan-induced paw swelling (paw thickness) [5]: significantly inhibit; effect on paw swelling compared with celecoxib [5]: better than that of celecoxib
CN(C)CCN(C(=O)Nc1ccc(Cl)cc1)c1ccc2nc(N)sc2c1 [Example 25, 1-(2-aminobenzo[d]thiazol-6-yl)-1-[2-(N,N-dimethylamino)ethyl]-3-(4-chlorophenyl)urea] | 70.4% | – | 27.1 nM | –
O=C(Cc1ccccc1)Nc1nc2ccc(N(CCN3CCOCC3)C(=O)Nc3ccc(Cl)cc3)cc2s1 [Example 27, 1-(2-phenylacetamidobenzo[d]thiazol-6-yl)-1-[2-(4-morpholinyl)ethyl]-3-(4-chlorophenyl)urea] | 79.4% | 0.02 nM | – | carrageenan-induced paw swelling (paw thickness) [5]: significantly inhibit; effect on paw swelling compared with celecoxib [5]: better than that of celecoxib
CCOC(=O)CNc1nc2ccc(N(CCN3CCOCC3)C(=O)Nc3ccc(Cl)cc3)cc2s1 [Example 29] | 69% | – | 2.6 nM | –
CC(=O)Nc1nc2ccc(N(CCN3CCOCC3)C(=O)Nc3ccc(Cl)cc3)cc2s1 [Example 30, 1-(2-acetamidobenzo[d]thiazol-6-yl)-1-[2-(4-morpholinyl)ethyl]-3-(4-chlorophenyl)urea] | 27.5% | – | 1.9 nM | –
